Test results as given in patent publication US20250236622A1, “BICYCLIC COMPOUNDS AS INHIBITORS OF WRN” (Incyte Corporation, priority 2023, published 2025).
pIC50: −log10 of the molar value.

What was measured:
[1] = molecular target: T1, WRN (Homo sapiens, UniProt Q14191); experiment: WRN ATPase Activity Assay (ADP-Glo); type: biochemical; conditions: 1-hr pre-incubation with enzyme; 100 μM ATP, 25 nM forked dsDNA, 1 nM WRN; geometric mean of at least 2 replicates
T1 construct: A His-tagged construct of WRN (AA S2-S1235) was produced and used for the ATPase assay; made in house; host or cells: Sf9 insect cells (baculovirus, pFastBac1)
T1 sequence (Q14191 2-1235): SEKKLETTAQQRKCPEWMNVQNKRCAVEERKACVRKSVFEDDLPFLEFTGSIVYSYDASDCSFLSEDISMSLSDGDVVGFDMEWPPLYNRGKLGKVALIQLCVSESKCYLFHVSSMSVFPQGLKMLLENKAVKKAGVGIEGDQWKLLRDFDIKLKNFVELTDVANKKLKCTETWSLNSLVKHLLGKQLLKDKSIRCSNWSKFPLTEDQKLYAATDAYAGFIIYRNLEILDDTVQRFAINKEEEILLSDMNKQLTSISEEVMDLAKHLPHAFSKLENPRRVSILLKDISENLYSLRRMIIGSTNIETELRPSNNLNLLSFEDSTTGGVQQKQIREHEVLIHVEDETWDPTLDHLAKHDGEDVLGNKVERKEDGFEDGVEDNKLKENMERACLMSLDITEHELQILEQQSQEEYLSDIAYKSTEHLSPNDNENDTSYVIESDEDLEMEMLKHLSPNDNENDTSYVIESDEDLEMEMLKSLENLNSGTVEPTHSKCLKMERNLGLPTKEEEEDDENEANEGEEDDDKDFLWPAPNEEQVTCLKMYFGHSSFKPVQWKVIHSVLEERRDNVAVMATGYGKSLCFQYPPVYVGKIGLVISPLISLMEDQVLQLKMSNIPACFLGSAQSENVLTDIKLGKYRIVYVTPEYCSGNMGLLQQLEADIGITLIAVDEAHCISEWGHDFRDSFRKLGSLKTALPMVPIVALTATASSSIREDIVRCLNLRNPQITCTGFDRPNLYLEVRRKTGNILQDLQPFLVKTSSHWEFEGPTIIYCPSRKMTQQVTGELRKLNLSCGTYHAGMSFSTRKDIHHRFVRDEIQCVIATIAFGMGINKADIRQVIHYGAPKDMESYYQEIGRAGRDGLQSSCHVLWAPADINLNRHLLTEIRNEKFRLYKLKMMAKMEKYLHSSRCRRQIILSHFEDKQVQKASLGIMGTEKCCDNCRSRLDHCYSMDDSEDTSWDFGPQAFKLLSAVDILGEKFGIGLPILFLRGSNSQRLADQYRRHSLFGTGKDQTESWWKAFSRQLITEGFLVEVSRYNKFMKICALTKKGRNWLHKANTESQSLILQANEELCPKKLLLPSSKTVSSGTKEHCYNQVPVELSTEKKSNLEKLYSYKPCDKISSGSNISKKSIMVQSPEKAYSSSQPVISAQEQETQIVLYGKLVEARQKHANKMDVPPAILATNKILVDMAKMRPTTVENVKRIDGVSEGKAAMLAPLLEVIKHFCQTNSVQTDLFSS
Procedure: Compounds of the Examples were tested for WRN ATPase activity. WRN ATPase activity catalyzes ATP hydrolysis to produce ADP and phosphate. DNA encoding the target protein, 6×HIS-TEV-WRN-517-945, was produced, cloned and transfected as detailed in Example D. The amount of ADP produced was measured using ADP-Glo™ Kinase Assay kit from Promega Corporation in a Greiner white regular volume 384 wells assay plate (Greiner #781075). Data was normalized to a standard curve generated using various ADP concentrations and the corresponding luminescent signal intensities at each concentration.
The assay conditions were optimized for enzyme concentration (WRN), substrate concentrations (ATP & dsDNA), and the linearity of the ATPase reaction, in the following assay buffer: 50 mM Tris-HCl, pH-7.5, 2 mM MgCl2, 50 mM NaCl, 1 mM EGTA, 0.01% P-20, 0.05% BSA, and 2 mM DTT prepared with nuclease free water.
A serial dilution (1:3 scheme) of the compounds were prepared in neat DMSO, with 100 nL of the compounds dispensed in the 384 wells assay plate. An 1-hr pre-incubation of the compounds with enzyme was included. A His-tagged construct of WRN (AA S2-S1235) was produced and used for the ATPase assay. Maximum inhibition control wells were set up with the addition of only assay buffer, and no inhibition control wells were set up with neat DMSO without test compounds. The reaction was initiated by addition of 5 μL substrate mix (200 μM ultrapure ATP, and 50 nM dsDNA prepared in assay buffer) and incubated at 25° C. for 35 min. A forked dsDNA oligomer substrate was prepared by annealing equal amounts of oligo GPat-1 ([BHQ2][…]) and oligo GPat-2 ([…][TAM]) and was used as dsDNA substrate for WRN ATPase assay. A typical ATPase reaction consists of 25 nM forked dsDNA, 100 μM ATP, and 1 nM WRN prepared in assay buffer. The WRN ATPase reaction was stopped by the addition of 5 μL of ADP-Glo Reagent from ADP-Glo™ Kinase Assay kit and incubated for 40 min to deplete the unreacted ATP. Afterwards, 5 μL of Kinase Detection Reagent from the ADP-Glo™ Kinase Assay kit was added and incubated for 1 hr for the development of luminescence signal.
Luminesce signals were measured on BMG PHERAstar FSX using luminescence protocol. Data analysis was carried out using Genedata software following % of control normalization. Fitting parameters include dose response IC50, Hill slope (n), maximum inhibition (S∞), and minimum inhibition (S0). The reported IC50 values for compounds in this invention are the geometric means of at least 2 independent replicates.

[2] = molecular target: T1, WRN; experiment: WRN Helicase Activity Assay (fluorescence DNA unwinding); type: biochemical; conditions: 1-hr pre-incubation with enzyme; 100 μM ATP, 25 nM forked dsDNA, 1 nM WRN; geometric mean of at least 2 replicates
Procedure: Compounds of the examples were tested for WRN helicase activity. DNA encoding the target protein, 6×HIS-TEV-WRN-517-945, was produced, cloned and transfected as detailed in Example D. To determine the inhibitory properties of the compounds, a 384 wells plate-based Helicase assay was set up to measure the extent of DNA unwinding (Helicase) activity of WRN. The WRN Helicase assay was designed to measure increase in fluorescence signal using a fluorescence based, donor-quencher paired forked dsDNA oligomer substrate (custom synthesis from Sigma-Aldrich) prepared by annealing equal amounts of oligo GPat-1 ([BHQ2][…]) and oligo GPat-2 ([…][TAM]). Continuous measurement of fluorescent signal was used to optimize the buffer conditions, concentration of enzyme (WRN), concentration of substrates (ATP & dsDNA), and the linearity of the Helicase reaction. All solutions were prepared in the following assay buffer: 50 mM Tris-HCl, pH-7.5, 2 mM MgCl2, 50 mM NaCl, 1 mM EGTA, 0.01% P-20, 0.05% BSA, and 2 mM DTT prepared with nuclease free water.
A serial dilution (1:3 scheme) of the compounds was prepared in neat DMSO and 100 nL of the compounds was dispensed in the Greiner black low volume (Greiner #784076) 384 wells assay plate. An 1-hr pre-incubation of the compounds with enzyme was included. A His-tagged construct of WRN (AA S2-S1235) was produced and used for the ATPase assay. Maximum inhibition control wells were set up with the addition of only assay buffer, and no inhibition control wells were set up with neat DMSO without test compounds. The reaction was initiated by addition of 5 μL substrate mix (200 μM ultrapure ATP, and 50 nM dsDNA prepared in assay buffer) and incubated at 25° C. for 35 min. A typical Helicase reaction consists of 25 nM forked dsDNA, 100 μM ATP, and 1 nM WRN prepared in assay buffer. The WRN Helicase reaction was quenched by the addition of 5 μL ‘STOP’ solution containing 100 mM EDTA (final EDTA concentration 33.33 mM) prepared in assay buffer. The plates were read on BMG PHERAstar FSX using 540/590 module to measure an increase of fluorescence. Data analysis was carried out using the Genedata software following % of control normalization. Fitting parameters include dose response IC50, Hill slope (n), maximum inhibition (S∞), and minimum inhibition (S0). The reported IC50 values for compounds in this invention are the geometric means of at least 2 independent replicates.

C=CC(=O)Nc1ccccc1-c1c(CC)nc2n(CC(=O)Nc3ccc(C(F)(F)F)cc3)c(C)nn2c1=O [Example 1, N-(2-(5-Ethyl-2-methyl-7-oxo-3-(2-oxo-2-((4-(trifluoromethyl)phenyl)amino)ethyl)-3,7-dihydro-[1,2,4]triazolo[1,5-a]pyrimidin-6-yl)phenyl)acrylamide]
pIC50 [1]: > 7.00 | pIC50 [2]: > 7.00

C=CC(=O)Nc1ccccc1-c1c(CC)nc2n(CC(=O)Nc3ccc(C(F)(F)F)cc3)c(C3CCC3)nn2c1=O [Example 3, N-(2-(2-Cyclobutyl-5-ethyl-7-oxo-3-(2-oxo-2-((4-(trifluoromethyl)phenyl)amino)ethyl)-3,7-dihydro-[1,2,4]triazolo[1,5-a]pyrimidin-6-yl)phenyl)acrylamide]
pIC50 [1]: 6.30 to 7.00 | pIC50 [2]: 6.30 to 7.00

C=CC(=O)Nc1ccccc1-c1c(CC)nc2n(CC(=O)Nc3ccc(C(F)(F)F)cc3)c(C3CCNCC3)nn2c1=O [Example 6, N-(2-(5-Ethyl-7-oxo-3-(2-oxo-2-((4-(trifluoromethyl)phenyl)amino)ethyl)-2-(piperidin-4-yl)-3,7-dihydro-[1,2,4]triazolo[1,5-a]pyrimidin-6-yl)phenyl)acrylamide]
pIC50 [1]: 5.30 to 6.00 | pIC50 [2]: 5.30 to 6.00

C=CC(=O)Nc1ccccc1-c1c(CC)nc2n(CC(=O)Nc3ccc(C(F)(F)F)cc3)c(C3CCCCC3)nn2c1=O [Example 4, N-(2-(2-Cyclohexyl-5-ethyl-7-oxo-3-(2-oxo-2-((4-(trifluoromethyl)phenyl)amino)ethyl)-3,7-dihydro-[1,2,4]triazolo[1,5-a]pyrimidin-6-yl)phenyl)acrylamide]
pIC50 [1]: 5.30 to 6.00 | pIC50 [2]: 4.70 to 5.30

C=CC(=O)Nc1ccccc1-c1c(CC)nc2n(CC(=O)Nc3ccc(C(F)(F)F)cc3)c(-c3cccs3)nn2c1=O [Example 5, N-(2-(5-ethyl-7-oxo-3-(2-oxo-2-((4-(trifluoromethyl)phenyl)amino)ethyl)-2-(thiophen-2-yl)-3,7-dihydro-[1,2,4]triazolo[1,5-a]pyrimidin-6-yl)phenyl)acrylamide]
pIC50 [1]: 6.30 to 7.00 | pIC50 [2]: 6.30 to 7.00

C=CC(=O)Nc1ccccc1-c1c(CC)nc2n(CC(=O)Nc3ccc(C(F)(F)F)cc3)c(C3CC3)nn2c1=O [Example 2, N-(2-(2-Cyclopropyl-5-ethyl-7-oxo-3-(2-oxo-2-((4-(trifluoromethyl)phenyl)amino)ethyl)-3,7-dihydro-[1,2,4]triazolo[1,5-a]pyrimidin-6-yl)phenyl)acrylamide]
pIC50 [1]: > 7.00 | pIC50 [2]: > 7.00
